# Source: paper PMC11995724, “Antibiotic target discovery by integrated phenotypic and activity-based profiling of electrophilic fragments” (Cell chemical biology, 2025)
# Test: in vitro
# Settings: human, hek293t cells
row,Compound,"viability at 48 h, 25 µM [%]"
1,"N#CC(=Cc1ccco1)C(=O)Nc1cccc2ncccc12 [8-B20, 2-cyano-3-(furan-2-yl)-N-(quinolin-5-yl)prop-2-enamide]",85.9
2,"Cc1cc(C=C(C#N)C(=O)Nc2nccs2)ccc1-n1cncn1 [9-J14, 2-cyano-3-[3-methyl-4-(1H-1,2,4-triazol-1-yl)phenyl]-N-(1,3-thiazol-2-yl)prop-2-enamide]",104
3,"COCC1(NC(=O)C(C)Cl)CC=CCC1 (centres unmarked) [6-J13, 2-chloro-N-[1-(methoxymethyl)cyclohex-3-en-1-yl]propanamide]",107
4,"N#CC(=Cc1ccc(O)c(O)c1)C(=O)Nc1cccc(Cl)c1Cl [8-F07, 2-cyano-N-(2,3-dichlorophenyl)-3-(3,4-dihydroxyphenyl)prop-2-enamide]",77.6
5,"CC(Cl)C(=O)N1Cc2cccn2[C@@H](C)C1 (stereo partly drawn) [7-N22, 2-chloro-1-[(4S)-4-methyl-1H,2H,3H,4H-pyrrolo[1,2-a]pyrazin-2-yl]propan-1-one]",86.7
6,"C=CC(=O)NCC1CCCC(C2CC2)O1 (centres unmarked) [1-M17, N-[(6-cyclopropyloxan-2-yl)methyl]prop-2-enamide]",88.7
7,"C=CC(=O)NC1(Cc2nnc3ccccn23)CCCCC1 [2-L03, N-[1-({[1,2,4]triazolo[4,3-a]pyridin-3-yl}methyl)cyclohexyl]prop-2-enamide]",76.2
8,"Cc1cc(F)c(C(=O)CCl)cc1F [10-L19, 2-chloro-1-(2,5-difluoro-4-methylphenyl)ethan-1-one]",87
9,"N#CC(=Cc1ccc([N+](=O)[O-])cc1)C(=O)Nc1cccc2ncccc12 [9-K21, 2-cyano-3-(4-nitrophenyl)-N-(quinolin-5-yl)prop-2-enamide]",114
10,"C=CC(=O)NCc1coc(-c2ccc(C)cc2)n1 [2-F13, N-{[2-(4-methylphenyl)-1,3-oxazol-4-yl]methyl}prop-2-enamide]",48.2
11,"CC(Cl)C(=O)C=C1N(C)c2ccccc2C1(C)C (centres unmarked) [10-J22, 3-chloro-1-(1,3,3-trimethyl-2,3-dihydro-1H-indol-2-ylidene)butan-2-one]",5.56
12,"CC(=O)N(c1ccc(C)c(C)c1)c1nc(C=C(C#N)C(N)=O)cs1 [8-M16, 2-cyano-3-{2-[N-(3,4-dimethylphenyl)acetamido]-1,3-thiazol-4-yl}prop-2-enamide]",85.9
13,"CC1CN(C(=O)c2ccc(NC(=O)C(C)Cl)cc2)CC(C)O1 (centres unmarked) [7-E22, 2-chloro-N-[4-(2,6-dimethylmorpholine-4-carbonyl)phenyl]propanamide]",79.1
14,"CCOc1ccccc1NC(=O)C(C)Cl (centres unmarked) [6-M10, 2-chloro-N-(2-ethoxyphenyl)propanamide]",93.2
15,"O=C(CCl)NC1CCCN(c2cc(N3CCOCC3)ncn2)C1 (centres unmarked) [4-N21, 2-chloro-N-{1-[6-(morpholin-4-yl)pyrimidin-4-yl]piperidin-3-yl}acetamide]",4.92
16,"C=CC(=O)Nc1ccc(O)c(C(=O)O)c1 [1-G06, 2-hydroxy-5-(prop-2-enamido)benzoic acid]",70.3
17,"N#CC(=Cc1ccc(F)cc1)C(=O)Nc1cccc2ncccc12 [9-C21, 2-cyano-3-(4-fluorophenyl)-N-(quinolin-5-yl)prop-2-enamide]",118
18,"CC(NC(=O)C(C#N)=Cc1cc(F)ccc1F)c1ccccc1 (centres unmarked) [8-O06, 2-cyano-3-(2,5-difluorophenyl)-N-(1-phenylethyl)prop-2-enamide]",25.3
19,"Cc1cc(C(=O)CCl)c(C)n1-c1cccc(Cl)c1 [10-N18, 2-chloro-1-[1-(3-chlorophenyl)-2,5-dimethyl-1H-pyrrol-3-yl]ethan-1-one]",0.68

row,Compound,"viability at 48 h, 25 µM [%]"
1,"CCN(Cc1ccc(C(F)(F)F)cc1)C(=O)CCl [7-H20, 2-chloro-N-ethyl-N-{[4-(trifluoromethyl)phenyl]methyl}acetamide]",0.708
2,"C=CC(=O)N1CCC(C(=O)Nc2cccc(-c3n[nH]c(C)n3)c2)CC1 [2-J09, N-[3-(5-methyl-1H-1,2,4-triazol-3-yl)phenyl]-1-(prop-2-enoyl)piperidine-4-carboxamide]",58.8
3,"N#CC(=Cc1ccc(Cl)cc1)C(=O)NCc1ccccc1 [9-G13, N-benzyl-3-(4-chlorophenyl)-2-cyanoprop-2-enamide]",104
4,"Cc1cc(C(=O)C(C)Cl)c(C)n1-c1ccc(OC(F)F)cc1 (centres unmarked) [10-E10, 2-chloro-1-{1-[4-(difluoromethoxy)phenyl]-2,5-dimethyl-1H-pyrrol-3-yl}propan-1-one]",84.6
5,"C=CC(=O)NCc1ccc2oc(=O)n(C)c2c1 [2-L15, N-[(3-methyl-2-oxo-2,3-dihydro-1,3-benzoxazol-5-yl)methyl]prop-2-enamide]",55
6,"Cc1ccccc1N(CC(=O)N1CCCCC1)C(=O)C(C)Cl (centres unmarked) [7-G20, 2-chloro-N-(2-methylphenyl)-N-[2-oxo-2-(piperidin-1-yl)ethyl]propanamide]",70.7
7,"Cc1cccc(NC(=O)C(C#N)=Cc2ccc(F)c(F)c2)c1 [8-I16, 2-cyano-3-(3,4-difluorophenyl)-N-(3-methylphenyl)prop-2-enamide]",75.5
8,"CC(Cl)C(=O)Nc1ccccc1Sc1ccccc1 (centres unmarked) [6-H10, 2-chloro-N-[2-(phenylsulfanyl)phenyl]propanamide]",116
9,"C=CC(=O)NCCN(C)S(=O)(=O)c1cccs1 [2-A09, N-[2-(N-methylthiophene-2-sulfonamido)ethyl]prop-2-enamide]",129
10,"CC(NC(=O)CCl)c1nc2c(s1)CCCCC2 (centres unmarked) [7-M22, 2-chloro-N-(1-{4H,5H,6H,7H,8H-cyclohepta[d][1,3]thiazol-2-yl}ethyl)acetamide]",0.506
11,"CCC(NC(=O)CCl)c1ccc(C)cc1 (centres unmarked) [4-K17, 2-chloro-N-[1-(4-methylphenyl)propyl]acetamide]",2.62
12,"C=CC(=O)Nc1ccc(F)c(C(=O)CC)c1 [1-I22, N-(4-fluoro-3-propanoylphenyl)prop-2-enamide]",101
13,"O=C(CCl)N1N=C(c2ccc(Cl)cc2)CC1c1ccco1 (centres unmarked) [5-L04, 2-chloro-1-[3-(4-chlorophenyl)-5-(furan-2-yl)-4,5-dihydro-1H-pyrazol-1-yl]ethan-1-one]",-0.215
14,"NC(=O)c1csc(C(=O)CCl)c1 [10-L06, 5-(2-chloroacetyl)thiophene-3-carboxamide]",66.2
15,"N#CC(=Cc1ccc(O)cc1)C(=O)Nc1cc(Cl)ccc1Cl [9-F03, 2-cyano-N-(2,5-dichlorophenyl)-3-(4-hydroxyphenyl)prop-2-enamide]",87
16,"Cc1ccc(Oc2ccc(Cl)cc2NC(=O)CCl)cc1 [4-A21, 2-chloro-N-[5-chloro-2-(4-methylphenoxy)phenyl]acetamide]",98.6
17,"N#CC(=CC=Cc1ccccc1)C(=O)Nc1ccc(F)c(Cl)c1 [8-O18, N-(3-chloro-4-fluorophenyl)-2-cyano-5-phenylpenta-2,4-dienamide]",76.2
18,"O=C(CCl)NC1CCC(O)(c2cccc(F)c2)CC1 (centres unmarked) [5-A11, 2-chloro-N-[4-(3-fluorophenyl)-4-hydroxycyclohexyl]acetamide]",0.51
19,"COc1ccc(-c2csc(NC(=O)CCl)n2)cc1 [4-N06, 2-chloro-N-[4-(4-methoxyphenyl)-1,3-thiazol-2-yl]acetamide]",0.915
